pEC50: −log10 of the molar value.

One may read the pEC50 as the EC50 on a negative log10 scale, so that one unit is a factor of ten.

Holding throughout (type): functional
For assay [1], the system named is Trypanosoma brucei. In words: Antiprotozoal activity against bloodstream form of wild type Trypanosoma brucei after 16 hrs by Alamar Blue assay. Background: The colour change of resazurin is a common sign of viable cells or microbes.
Assay [2] relates to Trypanosoma brucei. Kind of assay: Antiprotozoal activity against bloodstream form of multi-drug resistant Trypanosoma brucei B48 after 16 hrs by Alamar Blue assay. Conditions: B48, 16 h.
Assay [3] has as its system Trypanosoma brucei. Kind of assay: Antiprotozoal activity against PYR6-5 deficient bloodstream form of 5-FU hypersensitive Trypanosoma brucei after 16 hrs by Alamar Blue assay.
Assay [4] deals with Trypanosoma brucei. Kind of assay: Antiprotozoal activity against bloodstream form of 5FU resistant Trypanosoma brucei after 16 hrs by Alamar Blue assay.
Assay [5] concerns Trypanosoma brucei. Kind of assay: Resistance factor, ratio of EC50 for multi-drug resistant Trypanosoma brucei B48 to EC50 for wild type Trypanosoma brucei.
The test system of assay [6] is Trypanosoma brucei. Kind of assay: Resistance factor, ratio of EC50 for PYR6-5 deficient bloodstream form of 5-FU hypersensitive Trypanosoma brucei to EC50 for wild type Trypanosoma brucei.
In assay [7] the test system is Trypanosoma brucei. Kind of assay: Resistance factor, ratio of EC50 for 5FU resistant Trypanosoma brucei to EC50 for wild type Trypanosoma brucei.
Assay [8] concerns Leishmania mexicana. Kind of assay: Antileishmanial activity against wild type Leishmania mexicana after 16 hrs by Alamar Blue assay.
For assay [9], the system named is Leishmania mexicana. Kind of assay: Antileishmanial activity against 5FU resistant Leishmania mexicana after 16 hrs by Alamar Blue assay.
For assay [10], the system named is Leishmania mexicana. In words: Resistance factor, ratio of EC50 for 5FU resistant Leishmania mexicana to EC50 for wild type Leishmania mexicana.

Take `O=C(O[C@@H]1C=C[C@H](n2ccc(=O)[nH]c2=O)C1)c1ccccc1`: the pEC50 in the assay on Trypanosoma brucei [1] was 4.42; in the assay on Trypanosoma brucei [2], 4.42; in the assay on Trypanosoma brucei [3], 4.45; in the assay on Trypanosoma brucei [4], 4.49; with Leishmania mexicana [8], 4.02; in the assay on Leishmania mexicana [9], 4.02. For the same compound, the “Ratio EC50” value is given as 1 with Trypanosoma brucei [5], 0.93 in the assay with Trypanosoma brucei [6], 0.84 with Trypanosoma brucei [7] and 1.01 in the assay with Leishmania mexicana [10].
Turning to `O=C(O[C@@H]1C=C[C@H](n2ccc(=O)n(C(=O)c3cc(Cl)cc(Cl)c3)c2=O)C1)c1cc(Cl)cc(Cl)c1`, the pEC50 was 4.50 in the assay on Trypanosoma brucei [1]; 4.47 in the assay with Trypanosoma brucei [2]; 4.53 with Trypanosoma brucei [3]; 4.60 in the assay with Trypanosoma brucei [4]; 4.05 in the assay on Leishmania mexicana [8]; 4.04 in the assay with Leishmania mexicana [9]. The “Ratio EC50” value came out at 1.1 in the assay with Trypanosoma brucei [5], 0.93 in the assay with Trypanosoma brucei [6], 0.79 with Trypanosoma brucei [7] and 1.03 with Leishmania mexicana [10].
`N=C(N)c1ccc(OCCCCCOc2ccc(C(=N)N)cc2)cc1` [PENTAMIDINE]: the negative-log EC50 (pEC50) in the assay on Trypanosoma brucei [1] was 8.24; in the assay on Trypanosoma brucei [2], 6.03; in the assay on Trypanosoma brucei [3], 8.29; in the assay on Trypanosoma brucei [4], 8.21; in the assay with Leishmania mexicana [8], 5.72; with Leishmania mexicana [9], 5.79. Besides, the “Ratio EC50” value in the assay with Trypanosoma brucei [5] was found to be 164; in the assay with Trypanosoma brucei [6], 0.89; in the assay with Trypanosoma brucei [7], 1.06; in the assay with Leishmania mexicana [10], 0.86.
Regarding `Cc1cc(=O)[nH]c(=O)n1[C@H]1C=C[C@@H](OC(=O)c2ccccc2)C1`, the pEC50 with Trypanosoma brucei [1] was 4.42; in the assay on Trypanosoma brucei [2] it was 4.42; with Trypanosoma brucei [3], 4.46; in the assay on Trypanosoma brucei [4], 4.49; with Leishmania mexicana [8], 4.03; in the assay on Leishmania mexicana [9], 4.02. In addition, the “Ratio EC50” value in the assay with Trypanosoma brucei [5] worked out at 1; with Trypanosoma brucei [6], 0.91; with Trypanosoma brucei [7] it was 0.85; in the assay on Leishmania mexicana [10], 1.01.
Take `O=C(O[C@@H]1C=C[C@H](n2ccc(=O)[nH]c2=O)C1)c1cc(Cl)cc(Cl)c1`: the pEC50 is 4.48 in the assay on Trypanosoma brucei [1]; 4.46 in the assay with Trypanosoma brucei [2]; 4.50 in the assay with Trypanosoma brucei [3]; 4.57 in the assay on Trypanosoma brucei [4]; 4.09 in the assay on Leishmania mexicana [8]; 4.05 with Leishmania mexicana [9]. Besides, the “Ratio EC50” value is on record as 1 with Trypanosoma brucei [5], 0.95 in the assay on Trypanosoma brucei [6], 0.8 in the assay on Trypanosoma brucei [7] and 1.1 in the assay on Leishmania mexicana [10].
On to `O=c1[nH]c(=O)n([C@H]2C=C[C@@H](O)C2)cc1I`, for which the negative-log EC50 (pEC50) in the assay with Trypanosoma brucei [1] is 4.45; with Trypanosoma brucei [2], 4.44; in the assay with Trypanosoma brucei [3] it was 4.47; with Trypanosoma brucei [4] it was 4.51; in the assay on Leishmania mexicana [8], 4.02; with Leishmania mexicana [9], 4.02. For the same compound, the “Ratio EC50” value in the assay on Trypanosoma brucei [5] amounted to 1; with Trypanosoma brucei [6] it was 0.95; with Trypanosoma brucei [7], 0.87; in the assay with Leishmania mexicana [10] it was 1.
As for `O=c1ccn([C@H]2C=C[C@@H](O)C2)c(=O)[nH]1`, the pEC50 was 4.42 in the assay on Trypanosoma brucei [1]; 4.42 in the assay on Trypanosoma brucei [2]; 4.46 in the assay with Trypanosoma brucei [3]; 4.50 in the assay on Trypanosoma brucei [4]; 4.01 with Leishmania mexicana [8]; 4.01 with Leishmania mexicana [9]. Also, the “Ratio EC50” value in the assay with Trypanosoma brucei [5] amounted to 1; with Trypanosoma brucei [6] it was 0.92; in the assay with Trypanosoma brucei [7], 0.85; in the assay with Leishmania mexicana [10], 1.01.
Take `Cc1cc(C)cc(Cn2c(=O)cc(C)n([C@H]3C=C[C@@H](OC(=O)c4ccccc4)C3)c2=O)c1`: the pEC50 in the assay with Trypanosoma brucei [1] is 4.82; with Trypanosoma brucei [2] it was 4.85; with Trypanosoma brucei [3] it was 4.81; with Trypanosoma brucei [4], 4.84; in the assay with Leishmania mexicana [8], 4.59; with Leishmania mexicana [9], 4.55. The “Ratio EC50” value in the assay on Trypanosoma brucei [5] turned out to be 0.9; with Trypanosoma brucei [6] it was 1.03; in the assay on Trypanosoma brucei [7] it was 0.95; in the assay with Leishmania mexicana [10] it was 1.11.
For the compound `COc1ccc(Cn2c(=O)cc(C)n([C@H]3C=C[C@@H](OC(=O)c4ccccc4)C3)c2=O)cc1`, the pEC50 in the assay on Trypanosoma brucei [1] was 4.52; in the assay with Trypanosoma brucei [2], 4.57; in the assay with Trypanosoma brucei [3], 4.55; with Trypanosoma brucei [4] it was 4.69; in the assay with Leishmania mexicana [8] it was 4.47; with Leishmania mexicana [9], 4.36. In addition, the “Ratio EC50” value stood at 0.9 with Trypanosoma brucei [5], 0.93 in the assay with Trypanosoma brucei [6], 0.66 in the assay with Trypanosoma brucei [7] and 1.29 in the assay on Leishmania mexicana [10].
As for `O=C(O[C@@H]1C=C[C@H](n2ccc(=O)n(Cc3ccccc3)c2=O)C1)c1ccccc1`, the pEC50 was 4.54 in the assay on Trypanosoma brucei [1]; 4.59 in the assay on Trypanosoma brucei [2]; 4.56 in the assay with Trypanosoma brucei [3]; 4.68 in the assay with Trypanosoma brucei [4]; 4.46 in the assay on Leishmania mexicana [8]; 4.33 in the assay with Leishmania mexicana [9]. In addition, the “Ratio EC50” value in the assay with Trypanosoma brucei [5] is reported as 0.9; in the assay on Trypanosoma brucei [6] it was 0.95; in the assay with Trypanosoma brucei [7] it was 0.72; in the assay on Leishmania mexicana [10], 1.34.
On to `N#Cc1cccc(C(=O)O[C@@H]2C=C[C@H](n3ccc(=O)[nH]c3=O)C2)c1`, for which the negative-log EC50 (pEC50) in the assay with Trypanosoma brucei [1] is 4.42; with Trypanosoma brucei [2], 4.44; with Trypanosoma brucei [3], 4.46; in the assay with Trypanosoma brucei [4], 4.50; in the assay on Leishmania mexicana [8], 4.02; with Leishmania mexicana [9], 4.02. For the same compound, the “Ratio EC50” value in the assay with Trypanosoma brucei [5] came out at 1; with Trypanosoma brucei [6], 0.92; in the assay on Trypanosoma brucei [7], 0.83; in the assay on Leishmania mexicana [10], 1.02.
With `Cc1cc(C)cc(Cn2c(=O)ccn([C@H]3C=C[C@@H](OC(=O)c4ccccc4)C3)c2=O)c1`, the negative-log EC50 (pEC50) in the assay on Trypanosoma brucei [1] is 4.82; in the assay with Trypanosoma brucei [2], 4.80; in the assay on Trypanosoma brucei [3] it was 4.80; in the assay with Trypanosoma brucei [4], 4.91; in the assay with Leishmania mexicana [8] it was 4.38; in the assay on Leishmania mexicana [9] it was 4.41. For the same compound, the “Ratio EC50” value with Trypanosoma brucei [5] came to 1; with Trypanosoma brucei [6], 1.05; with Trypanosoma brucei [7], 0.82; in the assay with Leishmania mexicana [10] it was 0.94.
Take `O=c1[nH]c(=O)n([C@H]2C=C[C@@H](O)C2)cc1Br`: the pEC50 in the assay on Trypanosoma brucei [1] was 4.43; in the assay with Trypanosoma brucei [2], 4.44; with Trypanosoma brucei [3], 4.45; in the assay with Trypanosoma brucei [4] it was 4.49; in the assay on Leishmania mexicana [8], 4.01; in the assay with Leishmania mexicana [9] it was 4.01. For the same compound, the “Ratio EC50” value stood at 1 in the assay on Trypanosoma brucei [5], 0.96 in the assay on Trypanosoma brucei [6], 0.87 in the assay with Trypanosoma brucei [7] and 1 with Leishmania mexicana [10].
For `O=c1[nH]cc(F)c(=O)[nH]1` [FLUOROURACIL], the negative logarithm of the EC50 (pEC50) in the assay on Trypanosoma brucei [1] was 4.18; in the assay on Trypanosoma brucei [2], 4.13; in the assay with Trypanosoma brucei [3] it was 5.64; with Trypanosoma brucei [4] it was 2.41; in the assay with Leishmania mexicana [8] it was 5.11; with Leishmania mexicana [9], 2.61. The “Ratio EC50” value in the assay with Trypanosoma brucei [5] was 1.1; in the assay with Trypanosoma brucei [6], 0.034; in the assay on Trypanosoma brucei [7], 59.17; in the assay with Leishmania mexicana [10] it was 322.
As for `O=C(O[C@@H]1C=C[C@H](n2cc(Br)c(=O)[nH]c2=O)C1)c1ccccc1`, the pEC50 with Trypanosoma brucei [1] is 4.53; in the assay on Trypanosoma brucei [2], 4.62; in the assay on Trypanosoma brucei [3], 4.60; in the assay on Trypanosoma brucei [4] it was 4.75; in the assay with Leishmania mexicana [8], 4.04; with Leishmania mexicana [9] it was 4.04. Besides, the “Ratio EC50” value in the assay with Trypanosoma brucei [5] is 0.8; with Trypanosoma brucei [6], 0.85; with Trypanosoma brucei [7] it was 0.59; in the assay on Leishmania mexicana [10], 1.02.
As for `CCCCCCCCCCCCC#Cc1cn([C@H]2C=C[C@@H](O)C2)c(=O)n([C@H]2C=C[C@@H](O)C2)c1=O`, the pEC50 is 5.10 with Trypanosoma brucei [1]; 5.05 in the assay on Trypanosoma brucei [2]; 5.04 in the assay with Trypanosoma brucei [3]; 5.12 with Trypanosoma brucei [4]; 4.93 in the assay with Leishmania mexicana [8]; 4.94 in the assay on Leishmania mexicana [9]. Besides, the “Ratio EC50” value in the assay on Trypanosoma brucei [5] was 1.1; in the assay with Trypanosoma brucei [6], 1.15; with Trypanosoma brucei [7] it was 0.94; in the assay on Leishmania mexicana [10] it was 0.97.
Consider `Cc1cc(=O)[nH]c(=O)n1[C@H]1C=C[C@@H](O)C1`, for which the pEC50 is 4.45 in the assay on Trypanosoma brucei [1]; 4.41 with Trypanosoma brucei [2]; 4.49 in the assay with Trypanosoma brucei [3]; 4.54 in the assay with Trypanosoma brucei [4]; 4.01 with Leishmania mexicana [8]; 3.99 with Leishmania mexicana [9]. In addition, the “Ratio EC50” value in the assay with Trypanosoma brucei [5] was 1.1; in the assay with Trypanosoma brucei [6], 0.92; in the assay on Trypanosoma brucei [7], 0.82; in the assay on Leishmania mexicana [10], 1.04.
As to `Cc1cc(=O)n(C(=O)c2ccccc2)c(=O)n1[C@H]1C=C[C@@H](OC(=O)c2ccccc2)C1`, the negative logarithm of the EC50 (pEC50) in the assay with Trypanosoma brucei [1] is 4.48; with Trypanosoma brucei [2], 4.47; in the assay with Trypanosoma brucei [3], 4.49; in the assay with Trypanosoma brucei [4], 4.56; with Leishmania mexicana [8], 4.58; in the assay with Leishmania mexicana [9], 4.65. Further, the “Ratio EC50” value in the assay on Trypanosoma brucei [5] is 1; in the assay on Trypanosoma brucei [6] it was 0.98; with Trypanosoma brucei [7] it was 0.84; in the assay with Leishmania mexicana [10], 0.86.
In the case of `O=c1[nH]c(=O)n([C@H]2C=C[C@@H](O)C2)cc1Nc1ccccc1`, the pEC50 in the assay with Trypanosoma brucei [1] was 4.55; with Trypanosoma brucei [2] it was 4.52; with Trypanosoma brucei [3], 4.67; in the assay on Trypanosoma brucei [4], 4.86; in the assay on Leishmania mexicana [8] it was 4.03; with Leishmania mexicana [9] it was 4.02. For the same compound, the “Ratio EC50” value in the assay with Trypanosoma brucei [5] is 1.1; in the assay with Trypanosoma brucei [6], 0.76; in the assay on Trypanosoma brucei [7], 0.49; with Leishmania mexicana [10], 1.01.
`Cc1cc(C)cc(C(=O)O[C@@H]2C=C[C@H](n3ccc(=O)n(Cc4ccccc4)c3=O)C2)c1`: the pEC50 was 5.07 in the assay with Trypanosoma brucei [1]; 5.06 in the assay on Trypanosoma brucei [2]; 4.95 with Trypanosoma brucei [3]; 5.06 in the assay with Trypanosoma brucei [4]; 4.50 with Leishmania mexicana [8]; 4.60 in the assay with Leishmania mexicana [9]. The “Ratio EC50” value in the assay on Trypanosoma brucei [5] is 1; with Trypanosoma brucei [6], 1.29; in the assay on Trypanosoma brucei [7] it was 1.01; in the assay with Leishmania mexicana [10] it was 0.79.
